Results reported in patent US5814610A, “Osteogenic growth oligopeptides and pharmaceutical compositions containing them” (Yissum Research Development Company of the Hebrew …, priority 1993, dated 1998).
No end group written: not given here.

Tests used:
[1] = test system: osteoblastic MC3T3E1 cells; assay: Proliferative activity: osteoblastic MC3T3E1 cell number in vitro; format: cell-based; details: for Proliferative effect on cell number (magnitude, compared with positive sOGP control): MC3T3E1 cells
[2] = test system: NIH 3T3 fibroblasts; assay: Proliferative activity: fibroblastic NIH 3T3 cell number in vitro; format: cell-based; details: NIH 3T3 cells
[3] = Kharchenko et al.; cited from earlier work

With “Ac-MYGFGG [Ac-Met^0 [OGP(10-14)], Ac--Met--Tyr--Gly--Phe--Gly--Gly]” the “Peptide concentration of peak proliferative activity” value ([1]; MC3T3E1 cell number) was 10^-13 M, the “Proliferative effect on cell number (magnitude, compared with positive sOGP control)” value [1] was “closely similar to that of positive sOGP controls” and the “Proliferative effect on cell number (magnitude, compared with positive sOGP control)” value [2] was “closely similar to that of positive sOGP controls”.

In the case of Gly--Gly [OGP(13-14)], the “Proliferative effect on cell number (magnitude, compared with positive sOGP control)” value [1] is reported as “did not affect”, the “Proliferative activity, Percent Activity of Full Length Peptide [OGP(1-14)], Mean” value ([1]; MC3T3 E1 cells, mean of experiments) is reported as 0% and the “Proliferative effect on cell number (magnitude, compared with positive sOGP control)” value [2] is reported as “did not affect”. The “Proliferative activity, Percent Activity of Full Length Peptide [OGP(1-14)], Mean” value ([2]; mean of experiments) was 0%.

For “Tyr--Gly--Phe--Gly--Gly (YGFGG; printed: Tyr--Gly--Phe--Gly--Gly) [OGP(10-14)]”, the “Analgesic and opioid activity” value [3] is given as “analgesic and opiod activity”.
